In patent publication US8008023B2, “Natural ligand of G protein coupled receptor RCC356 and uses thereof” (Chemcom S.A., priority 2005, dated 2011):

Key:
RCC356 [1] = target: T1, RCC356 (Homo sapiens, UniProt Q8TCB6); assay: Screening of 80 odorants on RCC356 overexpressed in Hek293 cells, CRE-luciferase reporter (Dual-Glo); type: cell-based; details: Hek293 overexpressing RCC356; for RCC356 activation in odorant screening (luciferase activity as percent of forskolin response): odorants plated as 200 μM solutions in HBSS, two independent screenings; for hit found in both independent screenings: two independent screenings of 80 odorants
T1 construct: expressed in transfected cells; host or cells: Hek293 cells, transient transfection with lipofectamine 2000
T1 sequence (Q8TCB6 1-318): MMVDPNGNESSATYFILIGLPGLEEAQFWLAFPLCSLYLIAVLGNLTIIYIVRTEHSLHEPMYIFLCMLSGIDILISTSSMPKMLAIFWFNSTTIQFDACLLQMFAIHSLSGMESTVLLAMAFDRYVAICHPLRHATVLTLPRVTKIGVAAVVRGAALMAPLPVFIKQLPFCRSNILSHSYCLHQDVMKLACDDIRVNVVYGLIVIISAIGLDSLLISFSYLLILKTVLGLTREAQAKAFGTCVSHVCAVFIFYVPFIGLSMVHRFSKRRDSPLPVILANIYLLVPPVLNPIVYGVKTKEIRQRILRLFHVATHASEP
Method: (§1) Hek293 cells were grown in MEM supplemented with decomplemented FBS at 37° C. under 5% CO2 and 90% humidity. Two days before screening, cells were plated onto 96-well plates (PDL coated plates, Becton-Dickinson). The day after, cells were transfected with a plasmid encoding RCC356 polypeptide along with 2 plasmides encoding firefly luciferase and renilla luciferase respectively. Firefly transcription was driven by a minimum promoter including the CREB-response element (CRE), whereas renilla luciferase was driven by CMV promoter, a strong constitutive promoter. Transfection was performed using lipofectamine 2000 reagent (Invitrogen). Transfected cells were let under standard culture conditions for a further 24 hours, and then process for functional assay.
(§2) Odorants were dissolved as 1M solutions in DMSO. They were then plated onto 96-well plates as 200 μM solutions in HBSS (Cambrex). DMSO represented thereby less than 1% (v/v) of the odorant solutions. Positive controls such as forskolin were included in odorant plates. Forskolin activates production of cAMP that in turn, through binding to CREB transcription factor triggers production of firefly luciferase, the reporter gene of the system. Detected luciferase activity in each well could be thereby expressed as a percent of forskolin response, allowing standardization thereon.
(§3) Functional assay was performed using Dual-Glo luciferase assay Kit according to manufacturer instructions (Promega).

RCC356 [2] = target: T1, RCC356; assay: Concentration-response analysis of odorants on Hek293 cells overexpressing RCC356 polypeptide, CRE-luciferase reporter (Dual-Glo); type: cell-based; details: for EC50: 0.1 μM to 1 mM, CRE-luciferase, read-out: Ec50 of RCC356 activation
Method: as §1, with “To further validate hits found during screenings of 80 odorants on RCC356 overexpressing-Hek293 cells, concentration-response analyses have been performed. Hek293” for “Hek293”
as §2, with “First, tested odorants (isovaleric, valeric, propionic, hexanoic, heptanoic, caprilic and pelargonic acids) were” for “Odorants were”, “plates at different concentrations ranging from 0.1” for “plates as 200”, “μM to 1 mM” for “μM solutions”
as §3

Compound: CCCCCCCC(=O)O [caprilic acid, caprylic acid]
- RCC356 activation in odorant screening (luciferase activity as percent of forskolin response) (RCC356 [1]): seemed to lead to RCC356 activation
- EC50 (RCC356 [2]): 329 µM

Compound: CCCCCC(=O)O [caproic acid]
- RCC356 activation in odorant screening (luciferase activity as percent of forskolin response) (RCC356 [1]): seemed to lead to RCC356 activation
- EC50 (RCC356 [2]): 91 µM

Compound: CCC(=O)O [propionic acid]
- RCC356 activation in odorant screening (luciferase activity as percent of forskolin response) (RCC356 [1]): seemed to lead to RCC356 activation

Compound: CC(C)CC(=O)O [isovaleric acid]
- RCC356 activation in odorant screening (luciferase activity as percent of forskolin response) (RCC356 [1]): seemed to lead to RCC356 activation
- hit found in both independent screenings (RCC356 [1]): found in both screening
- EC50 (RCC356 [2]): 25 µM
- efficiency of ligand on RCC356 activation (RCC356 [2]; percent of forskolin response (FIG. 3A)): most efficient ligand

Compound: CCCCCCC(=O)O [oenanthylic acid]
- RCC356 activation in odorant screening (luciferase activity as percent of forskolin response) (RCC356 [1]): seemed to lead to RCC356 activation
- EC50 (RCC356 [2]): 260 µM

Compound: O=C(O)C1CCCCC1 [hexahydrobenzoic acid]
- EC50 (RCC356 [2]): 104 µM

Compound: CCCCC(=O)O [valeric acid]
- RCC356 activation in odorant screening (luciferase activity as percent of forskolin response) (RCC356 [1]): seemed to lead to RCC356 activation
- hit found in both independent screenings (RCC356 [1]): found in both screening
- EC50 (RCC356 [2]): 97 µM

Compound: C=CCCCC(=O)O [5-hexenoic acid]
- EC50 (RCC356 [2]): 485 µM

Compound: CCCCCCCCC(=O)O [pelargonic acid]
- RCC356 activation in odorant screening (luciferase activity as percent of forskolin response) (RCC356 [1]): seemed to lead to RCC356 activation
- EC50 (RCC356 [2]): 643 µM
